Measured values: patent US20210290597A1, “METHOD OF TREATING A CONDITION ASSOCIATED WITH NEURODEGENERATION USING INHIBITORS OF OAT3” (Neuropore Therapies, Inc., priority 2018, published 2021)
Like-named read-outs stand apart in the source and are kept apart here.

Assays:
human transporter OAT3 = biological target: T1, human transporter OAT3 (Homo sapiens, UniProt Q8TCC7); test: Further OAT3 uptake inhibition assay (Table 2); type: cell-based; details: compound 0.03-10 μM
T1 construct: expressed in transfected cells; host or cells: MDCK-II
T1 sequence (Q8TCC7 1-542): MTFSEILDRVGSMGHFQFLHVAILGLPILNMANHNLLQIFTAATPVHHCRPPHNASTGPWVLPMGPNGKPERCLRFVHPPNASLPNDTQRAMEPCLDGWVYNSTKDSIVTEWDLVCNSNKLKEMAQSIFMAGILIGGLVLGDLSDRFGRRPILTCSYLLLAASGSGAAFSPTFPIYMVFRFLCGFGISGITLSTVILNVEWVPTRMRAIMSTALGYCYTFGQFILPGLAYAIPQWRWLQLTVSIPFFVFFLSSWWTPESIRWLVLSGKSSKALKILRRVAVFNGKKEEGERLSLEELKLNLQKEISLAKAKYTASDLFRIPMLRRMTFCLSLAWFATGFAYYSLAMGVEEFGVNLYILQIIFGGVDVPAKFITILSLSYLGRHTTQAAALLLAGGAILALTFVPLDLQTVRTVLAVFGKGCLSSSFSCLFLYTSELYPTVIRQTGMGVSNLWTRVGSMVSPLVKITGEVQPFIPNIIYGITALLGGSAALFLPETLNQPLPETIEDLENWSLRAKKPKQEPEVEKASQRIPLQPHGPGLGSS
Method: (§1) In a further assay, the effects of several other compounds (including compounds 2, 3, and 4) were assessed against OAT3. The assay was carried out using a similar procedure as described above, using para-aminohippurate (PAH) and estrone-3-sulfate (E3S) as the substrates for measuring OAT3-mediated transport. […] MDCK-II cells were grown in 96-well cell culture plates, and the cell plates are maintained at 37° C. in 5% CO2 atmosphere prior to initiation of the transport experiment. MDCK-II cells were maintained in DMEM with low glucose and 10% FBS. Cells passages up to 40 are seeded at 60K±10K cells/well on 96-well, transwell membrane plates approximately 24 hours before transfection. Transport assays were carried out approximately 48 hours after transfection. Radio-labeled para-aminohippurate ([3H]-PAH) and estrone-3-sulfate (E3S) were used as substrates for measuring OAT3-mediated transport, where the transport of the substrate was determined by radiometric detection. Probenecid was used as a reference inhibitor. Transport study samples were run in triplicate.
(§2) For uptake assays, the net transporter-mediated uptake rate (V) of the substrate by each SLC transporter was calculated as follows:
(§3) Transporter-mediated uptake rate(pmol/min/cm^2)=((Cellular accumulation in cells expressing the transporter)−(Mean cellular accumulation in control cells))/Incubation time.
(§4) Percent inhibition was calculated by dividing the transporter-mediated uptake rate in presence of the test article or the reference inhibitor by the transporter-mediated uptake rate in presence of vehicle control:
(§5) Percent inhibition=100−(100×(transporter-mediated uptake rate)with inhibitor/(transporter-mediated uptake rate)vehicle control)
(§6) For uptake assays, statistical analyses using an unpaired t test was performed between transporter-mediated uptake rate or ATP-dependent transport rate of probe substrate with vehicle control and the inhibitor. A p value of <0.05 was considered statistically significant.
(§7) Table 2 summarizes the inhibitory activity of these compounds against OAT3 in the uptake of probe substrate PAH (p-aminohippurate) or E3S (estrone-3-sulfate). The percent inhibition values were determined by testing compounds at a single concentration of 1 μM with a PAH concentration of 10 μM. Data represent the mean and standard deviation of triplicate samples. The IC50 values were calculated by means of a concentration response curve with a compound concentration range of 0.03-10 μM and a probe substrate concentration of 10 μM PAH or 0.1 μM E3S. The percent inhibition at the various concentrations was run in triplicate and the IC50 value was determined by non-linear regression using GraphPad Prism.

OAT3 = biological target: T2, OAT3 (Homo sapiens, UniProt Q8TCC7); test: Further OAT3 uptake inhibition assay (Table 2); type: cell-based; details: human, MDCK-II cells expressing human OAT3, probe 10 μM PAH (p-aminohippurate); compound 1 μM; PAH 10 μM; mean and SD of triplicate
T2 construct: expressed in transfected cells; host or cells: MDCK-II
T2 sequence (Q8TCC7 1-542): T1 sequence (Q8TCC7 1-542)
Method: as §1, §2, §3, §4, §5, §6, §7

[1] = 0.1 μM E3S, read-out: OAT3 inhibition substrate = E3S (IC50)
[2] = 10 μM PAH, read-out: OAT3 inhibition substrate = PAH (IC50)

Structure (SMILES): O=S(=O)(c1ccc(-n2cn[nH]c2=S)c(N2CCOCC2)c1)c1ccc(Cl)c(C(F)(F)F)c1 [Compound 2, 4-(4-((4-chloro-3-(trifluoromethyl)phenyl)sulfonyl)-2-morpholinophenyl)-2,4-dihydro-3H-1,2,4-triazole-3-thione]
- IC50 (human transporter OAT3; [1]): 1.9 µM
- IC50 (human transporter OAT3; [2]): 1.36 µM
- inhibition at 1 μM (OAT3): 48%

Structure (SMILES): O=S(=O)(c1ccccc1)c1ccc(-n2cn[nH]c2=S)cc1 [Compound 3, 4-(4-(phenylsulfonyl)phenyl)-2,4-dihydro-3H-1,2,4-triazole-3-thione]
- inhibition at 1 μM (OAT3): 33.1%

Structure (SMILES): O=S(=O)(c1ccc(Cl)cc1)c1ccc(-n2cn[nH]c2=S)cc1 [Compound 4, 4-(4-((4-chlorophenyl)sulfonyl)phenyl)-2,4-dihydro-3H-1,2,4-triazole-3-thione]
- inhibition at 1 μM (OAT3): 76.3%

Structure (SMILES): Cc1cc(S(=O)(=O)c2ccc(-n3cn[nH]c3=S)cc2)ccc1Cl [Compound 5, 4-(4-((4-chloro-3-methylphenyl)sulfonyl)phenyl)-2,4-dihydro-3H-1,2,4-triazole-3-thione]
- inhibition at 1 μM (OAT3): 86.5%

Structure (SMILES): O=S(=O)(c1ccc(-n2cn[nH]c2=S)cc1)c1cccc(C(F)(F)F)c1 [Compound 11, 4-(4-((3-(trifluoromethyl)phenyl)sulfonyl)phenyl)-2,4-dihydro-3H-1,2,4-triazole-3-thione]
- inhibition at 1 μM (OAT3): 58.6%

Structure (SMILES): COc1cccc(S(=O)(=O)c2ccc(-n3cn[nH]c3=S)cc2)c1 [Compound 12, 4-(4-((3-methoxyphenyl)sulfonyl)phenyl)-2,4-dihydro-3H-1,2,4-triazole-3-thione]
- inhibition at 1 μM (OAT3): 48.4%

Structure (SMILES): CN(C)c1cccc(S(=O)(=O)c2ccc(-n3cn[nH]c3=S)cc2)c1 [Compound 15, 4-(4-((3-(dimethylamino)phenyl)sulfonyl)phenyl)-2,4-dihydro-3H-1,2,4-triazole-3-thione]
- inhibition at 1 μM (OAT3): 60.1%

Structure (SMILES): O=S(=O)(c1ccc(-n2cn[nH]c2=S)c(N2CCCCC2)c1)c1ccc(Cl)c(C(F)(F)F)c1 [Compound 19, 4-(4-((4-chloro-3-(trifluoromethyl)phenyl)sulfonyl)-2-(piperidin-1-yl)phenyl)-2,4-dihydro-3H-1,2,4-triazole-3-thione]
- inhibition at 1 μM (OAT3): 43%

Structure (SMILES): CN1CCN(c2cc(S(=O)(=O)c3ccc(Cl)c(C(F)(F)F)c3)ccc2-n2cn[nH]c2=S)CC1 [Compound 20, 4-(4-((4-chloro-3-(trifluoromethyl)phenyl)sulfonyl)-2-(4-methylpiperazin-1-yl)phenyl)-2,4-dihydro-3H-1,2,4-triazole-3-thione]
- inhibition at 1 μM (OAT3): 17.2%

Structure (SMILES): CCN(CC)c1cc(S(=O)(=O)c2ccc(Cl)c(C(F)(F)F)c2)ccc1-n1cn[nH]c1=S [Compound 21, 4-(4-((4-chloro-3-(trifluoromethyl)phenyl)sulfonyl)-2-(diethylamino)phenyl)-2,4-dihydro-3H-1,2,4-triazole-3-thione]
- inhibition at 1 μM (OAT3): 48.2%

Structure (SMILES): CCOCCOc1cc(S(=O)(=O)c2ccc(Cl)c(C(F)(F)F)c2)ccc1-n1cn[nH]c1=S [Compound 22, 4-(4-((4-chloro-3-(trifluoromethyl)phenyl)sulfonyl)-2-(2-ethoxyethoxy)phenyl)-2,4-dihydro-3H-1,2,4-triazole-3-thione]
- inhibition at 1 μM (OAT3): 79.5%

Structure (SMILES): CSc1nncn1-c1ccc(S(=O)(=O)c2ccc(Cl)c(C(F)(F)F)c2)cc1 [Compound 26, 4-(4-((4-chloro-3-(trifluoromethyl)phenyl)sulfonyl)phenyl)-3-(methylthio)-4H-1,2,4-triazole]
- IC50 (human transporter OAT3; [1]): 8.63 µM
- IC50 (human transporter OAT3; [2]): 7.67 µM
- inhibition at 1 μM (OAT3): 9.78%

Structure (SMILES): FC(F)(F)c1cc(Oc2ccc(-n3cn[nH]c3=S)cc2)ccc1Cl [Compound 30, 4-(4-(4-chloro-3-(trifluoromethyl)phenoxy)phenyl)-2,4-dihydro-3H-1,2,4-triazole-3-thione]
- inhibition at 1 μM (OAT3): 86.3%

Structure (SMILES): O=S(=O)(c1ccc(-n2cc[nH]c2=S)cc1)c1ccc(Cl)c(C(F)(F)F)c1 [Compound 31, 1-(4-(4-chloro-3-(trifluoromethyl)phenylsulfonyl)phenyl)-1H-imidazole-2(3H)-thione]
- inhibition at 1 μM (OAT3): -1.05%

Structure (SMILES): O=c1[nH]ccn1-c1ccc(S(=O)(=O)c2ccc(Cl)c(C(F)(F)F)c2)cc1 [Compound 32, 1-(4-((4-chloro-3-(trifluoromethyl)phenyl)sulfonyl)phenyl)-1,3-dihydro-2H-imidazol-2-one]
- inhibition at 1 μM (OAT3): -9.18%

Structure (SMILES): O=S(=O)(Nc1ccc(Cl)c(C(F)(F)F)c1)c1ccc(-n2cn[nH]c2=S)cc1 [Compound 33, N-(4-chloro-3-(trifluoromethyl)phenyl)-4-(5-thioxo-1H-1,2,4-triazol-4(5H)-yl)benzenesulfonamide]
- inhibition at 1 μM (OAT3): 94.1%

Structure (SMILES): CS(=O)(=O)N1CCN(Cc2nnc(Nc3ccc(S(=O)(=O)c4ccc(Cl)cc4)cc3)s2)CC1 [Compound X1]
- IC50 (human transporter OAT3; [1]): > 30 µM
- IC50 (human transporter OAT3; [2]): > 30 µM

Structure (SMILES): Nc1ncc(-c2cc(N3CCOCC3)cc(S(=O)(=O)c3ccccc3)c2)cn1 [Compound X2]
- IC50 (human transporter OAT3; [1]): > 30 µM
- IC50 (human transporter OAT3; [2]): > 30 µM
